Experimental data: patent US9198879B2, “Pharmacologically optimized multimodal drug delivery system for nordihydroguiaretic acid (NDGA)” (Napo Pharmaceuticals, Inc., priority 2011, dated 2015)
“Also recorded” adds a separate entry of the source.

System: fructose-fed and fat-fed/STZ rat models
Assay: NDGA versus metformin at equimolar doses in fructose-fed and fat-fed/STZ rat models
Format: in vivo
Conditions: equimolar doses of NDGA or metformin
Text: NDGA has been studied by administering it orally to animals to determine its effectiveness for lowering glucose, free fatty acid (FFA) and triglyceride levels. […] See Example 2 below. […] There was no significant baseline difference between the NDGA and metformin groups.
In one such study, the effects of NDGA and metformin as a control drug for treatment of diabetes were studied in a non-diabetic model of hypertriglyceridemia (fructose-fed) and a non-genetic, (i.e., streptozotocin (STZ) treated) model of diabetes. […] See FIGS. 2 (glucose) and 3 (triglycerides).

**Q.** What does the source list for `CN(C)C(=N)N=C(N)N` [metformin]?
**A.** change in insulin concentrations: without changing insulin concentration; also recorded: without any change in insulin concentrations; glucose lowering in comparison to the vehicle control: significantly lowered glucose; triglyceride lowering in comparison to the vehicle control: significantly lowered triglycerides
